The subject of data set [1] is maximal electroshock-induced seizures (MES). Description: Maximum electroshock seizure test (MES), oral administration to mice. The format is in vivo. Conditions: Mus musculus, po, 30 minutes before the test, dose protecting 50% of animals. From the text: The compounds of the present invention may be tested for in vivo anticonvulsant activity after i.v., p.o. or i.p. injection using a number of anticonvulsant tests in mice, including the maximum electroshock seizure test (MES). Maximum electroshock seizures were induced in male NSA mice weighing between 15-20 g and male Sprague-Dawley rats weighing between 200-225 g by application of current (50 mA, 60 pulses/sec, 0.8 msec pulse width, 1 sec duration, D.C., mice; 99 mA, 125 pulses/sec, 0.8 msec pulse width, 2 sec duration, D.C., rats) using a Ugo Basile ECT device (Model 7801). Mice were restrained by gripping the loose skin on their dorsal surface and saline-coated corneal electrodes were held lightly against the two corneae. Rats were allowed free movement on the bench top and ear-clip electrodes were used. […] A tonic seizure was defined as a hindlimb extension in excess of 90 degrees from the plane of the body. Results were treated in a quantal manner.
The ability of 3-[4-(2,4-difluorophenoxy)phenyl]-1H-pyrazole-1-carboxamide to block maximal electroshock-induced seizures (MES) was determined as described earlier.
3-[4-(2,4-Difluorophenoxy)phenyl]-1H-pyrazole-1-carboxamide was administered p.o. to mice 30 minutes before the test procedure.
The following compounds in Table 1 were tested in MES as described for 3-[4-(2,4-difluorophenoxy)phenyl]-1H-pyrazole-1-carboxamide: […]

The target in data set [2] is rBIIA isoform of Na+ channels (Rattus norvegicus, UniProt P04775). The data set can be described thus: Electrophysiological Assay 2: whole-cell patch-clamp of Na+ currents in HEK-293 cells expressing rBIIA. Format: cell-based. The conditions noted are these: for Ki: HEK-293 cells stably expressing rBIIA, concentration that produces half maximal inhibition. How it is done: Cell preparation: HEK-293 (NaIIA-B2) cell line stably expressing the rBIIA isoform of Na^+ channels was established in-house. The cells were cultured using standard techniques, as described previously (Verdoorn, T. A, et al., Neuron 4:919-928 (1990)). For electrophysiology, cells were plated onto poly-D-lysine pre-coated Cellware 35 mm Petri dishes (BIOCOAT, Becton Dickinson) at a density of ˜10^4 cells/dish on the day of re-seeding from confluent cultures. Our experience has been that cells are suitable for recordings for 2-3 days after plating.
Patch-clamp recordings of voltage-sensitive Na^+ currents. Whole-cell voltage-clamp recordings were made using conventional patch-clamp techniques (Hamill et al., Pfluegers Arch. 391:85-100 (1981)) with an Axopatch 200A amplifier (Axon Instruments, Foster City, Calif.). The recording chamber was continuously superfused with the external solution (150 mM NaCl, 5.4 mM KCl, 1.8 mM CaCl2, 1 mM MgCl2, 10 mM HEPES, 10 mM glucose, pH7.4 adjusted with NaOH, osmolality ˜320 mmol/kg) at a speed of about 1 mL/min. Recording pipettes were pulled from the thick-walled capillaries (WPI, Sarasota, Fla.) and fire-polished. The pipette resistances ranged from 1 to 3 MΩ when the pipettes were filled with internal solution containing (in mM): 130 CsF, 20 NaCl, 2 MgCl2, 10 EGTA, 10 HEPES, pH adjusted to 7.4 with CsOH, osmolality ˜310 mmol/kg. Drugs and intervening wash-outs were applied through a linear array of flow pipes (Drummond Microcaps, 2 μL, 64-mm length). Compounds are dissolved in dimethylsulfoxide (DMSO) to make a 30 mM stock solution, which was subsequently diluted into the external solution to give final concentrations of 0.1-100 μM. At the highest (1%) concentration, DMSO inhibited the size of Na^+ current only slightly. Currents were recorded at room temperature (22-25° C.), filtered at 3 kHz with an active 8-pole Bessel filter (Frequency Devices, Haverhill, Mass.), digitized at 10-50 μs intervals, and stored using Digidata 1200 analog/digital interface with Pclamp6/Clampex software (Axon Instruments). Series resistance was cancelled typically by ˜75% when necessary.
The following voltage pulse protocols were used to assess the potency and kinetics of inhibition of the Na^+ channels by the compounds (FIG. 1). [drawing 33]
FIG. 1. Voltage pulse protocols. A. IV-curves. C. Steady-state inactivation. B. Repriming kinetics. D. Time course of binding.
Current-voltage relationship (IV-curve), protocol A, was used to report the voltage at which the maximal inward Na^+ current is achieved. This voltage was used throughout the experiment as testing voltage, Vt. The steady-state inactivation (or, availability) curve, protocol C, was used to get the voltage at which almost complete (≧95%) inactivation of Na^+ channels occurs; it served as voltage for conditioning prepulse, Vc, throughout the experiment. Protocol B reports how fast the channels recover from inactivation at hyperpolarized voltages. This permitted us to set up the duration of the hyperpolarization gap which is used in measurement of the kinetics of binding of compounds to inactivated Na^+ channels (protocol D). Channel repriming under control conditions was fast (≧90% recovery during first 5-10 ms). If a drug substantially retards the repriming process then it becomes possible (protocol D) to accurately measure the kinetics of binding of the inhibitor to inactivated channels as well as the steady-state affinity (k+ and Ki). To estimate k+ values the reduction in peak currents in successive trials with varying pre-pulse duration was plotted as a function of pre-pulse duration and the time constant (τ) measured by mono-exponential fit. A plot of 1/τ as a function of antagonist concentration then allowed calculating of the macroscopic binding rates of the antagonists. To determine Ki values the partial inhibition curves measured by fractional responses in steady-state were fitted with the logistic equation: […]
Background: Patch clamp records ionic current or voltage across a cell membrane.

The target in data set [3] is T1, hSkM1 isoform of Na+ channels (Homo sapiens, UniProt P35499).
T1 construct: expressed in transfected cells
Description: Electrophysiological Assay 1: whole-cell patch-clamp of Na+ currents in HEK-293 cells expressing hSkM1. The conditions noted are these: HEK-293 cells stably expressing hSkM1; concentration that produces half maximal inhibition. Format: cell-based. The method, then: Cell preparation: HEK-293 cells stably expressing the hSkM1 isoform of Na^+ channels (generous gift from Dr. A. L. George, Vanderbilt University Medical School) were cultured using standard techniques, as described previously (Verdoorn, T. A, et al., Neuron 4:919-928 (1990)). For electrophysiology, cells were plated onto 35 mm Petri dishes (pre-coated with poly-D-lysine) at a density of 1:40 on the day of re-seeding from confluent cultures. Our experience has been that cells are suitable for recordings for 2-3 days after plating.
Patch-clamp recordings of voltage-sensitive Na^+ currents: Whole-cell voltage-clamp recordings were made using conventional patch-clamp techniques (Hamill et al., Pfluegers Arch. 391:85-100 (1981)) with an Axopatch 200A amplifier (Axon Instruments, Foster City, Calif.). […] The recording chamber was continuously superfused with the external solution (150 mM NaCl, 5.4 mM KCl, 1.8 mM CaCl2, 1 mM MgCl2, 10 mM HEPES, 10 mM glucose, pH 7.4 (NaOH)) at a speed of about 1 mL/min. Recording pipettes were pulled from thick-walled capillaries (WPI, Sarasota, Fla.) and fire-polished. The pipette resistances ranged from 1 to 3 MΩ when the pipettes were filled with internal solution containing (in mM): 110 CsF, 10 NaCl, 5 MgCl2, 11 EGTA, 10 HEPES, pH adjusted to 7.4 with CsOH. Osmolality was set with a difference of 15-20 mmol/kg between external and internal solutions (lower inside the cell). Drugs and intervening wash-outs were applied through a linear array of flow pipes (Drummond Microcaps, 2 μL, 64-mm length). Compounds are dissolved in dimethylsulfoxide (DMSO) to make a 30 mM stock solution, which was subsequently diluted into the external solution to give final concentrations of 0.1-100 μM. At the highest (1%) concentration, DMSO inhibited the size of Na^+ current only slightly. Currents were recorded at room temperature (22-25° C.), filtered at 5 kHz with an active 8-pole Bessel filter (Frequency Devices, Haverhill, Mass.), digitized at 10-50 μs intervals, and stored using Digidata 1200 analog/digital interface with Pclamp6/Clampex software (Axon Instruments). Series resistance was cancelled typically by ˜75% when necessary. The inhibitory potency of drugs was assessed by measuring reductions in the peak amplitude of Na^+ currents induced by increasing concentrations of compounds tested. Na^+ currents were elicited by stepping membrane voltage from holding potentials over the range −100 mV to −50 mV, to a pulse potential of −10 mV. The test pulse duration was 5-10 msec, repeated at a frequency≦1 Hz. Concentration-inhibition curves were fitted with equation 1:
I/Icontrol=1/(1+([compound]/IC50)) Eq. 1
where Icontrol is the maximal Na^+ current in the absence of antagonist, [compound] is the drug concentration, and IC50 is the concentration of compound that produces half maximal inhibition.
The apparent antagonist dissociation constant (Kd) of this compound for inactivated sodium channels is ˜8 nM.
The Ki (the concentration of a compound that produces half maximal inhibition) value for 3-[4-(4-fluorophenoxy)phenyl]-1H-pyrazole-1-carboxamide and other tested compounds are presented in Table 2.

The source of these data is patent US6737418B2, “Aryl substituted pyrazoles, imidazoles, oxazoles, thiazoles and pyrroles, and the use thereof” (Euro-Celtique S.A., priority 1999, dated 2004).

Counter-ions that a name gives are not always drawn.

T1 sequence (P35499 whole entry, canonical isoform): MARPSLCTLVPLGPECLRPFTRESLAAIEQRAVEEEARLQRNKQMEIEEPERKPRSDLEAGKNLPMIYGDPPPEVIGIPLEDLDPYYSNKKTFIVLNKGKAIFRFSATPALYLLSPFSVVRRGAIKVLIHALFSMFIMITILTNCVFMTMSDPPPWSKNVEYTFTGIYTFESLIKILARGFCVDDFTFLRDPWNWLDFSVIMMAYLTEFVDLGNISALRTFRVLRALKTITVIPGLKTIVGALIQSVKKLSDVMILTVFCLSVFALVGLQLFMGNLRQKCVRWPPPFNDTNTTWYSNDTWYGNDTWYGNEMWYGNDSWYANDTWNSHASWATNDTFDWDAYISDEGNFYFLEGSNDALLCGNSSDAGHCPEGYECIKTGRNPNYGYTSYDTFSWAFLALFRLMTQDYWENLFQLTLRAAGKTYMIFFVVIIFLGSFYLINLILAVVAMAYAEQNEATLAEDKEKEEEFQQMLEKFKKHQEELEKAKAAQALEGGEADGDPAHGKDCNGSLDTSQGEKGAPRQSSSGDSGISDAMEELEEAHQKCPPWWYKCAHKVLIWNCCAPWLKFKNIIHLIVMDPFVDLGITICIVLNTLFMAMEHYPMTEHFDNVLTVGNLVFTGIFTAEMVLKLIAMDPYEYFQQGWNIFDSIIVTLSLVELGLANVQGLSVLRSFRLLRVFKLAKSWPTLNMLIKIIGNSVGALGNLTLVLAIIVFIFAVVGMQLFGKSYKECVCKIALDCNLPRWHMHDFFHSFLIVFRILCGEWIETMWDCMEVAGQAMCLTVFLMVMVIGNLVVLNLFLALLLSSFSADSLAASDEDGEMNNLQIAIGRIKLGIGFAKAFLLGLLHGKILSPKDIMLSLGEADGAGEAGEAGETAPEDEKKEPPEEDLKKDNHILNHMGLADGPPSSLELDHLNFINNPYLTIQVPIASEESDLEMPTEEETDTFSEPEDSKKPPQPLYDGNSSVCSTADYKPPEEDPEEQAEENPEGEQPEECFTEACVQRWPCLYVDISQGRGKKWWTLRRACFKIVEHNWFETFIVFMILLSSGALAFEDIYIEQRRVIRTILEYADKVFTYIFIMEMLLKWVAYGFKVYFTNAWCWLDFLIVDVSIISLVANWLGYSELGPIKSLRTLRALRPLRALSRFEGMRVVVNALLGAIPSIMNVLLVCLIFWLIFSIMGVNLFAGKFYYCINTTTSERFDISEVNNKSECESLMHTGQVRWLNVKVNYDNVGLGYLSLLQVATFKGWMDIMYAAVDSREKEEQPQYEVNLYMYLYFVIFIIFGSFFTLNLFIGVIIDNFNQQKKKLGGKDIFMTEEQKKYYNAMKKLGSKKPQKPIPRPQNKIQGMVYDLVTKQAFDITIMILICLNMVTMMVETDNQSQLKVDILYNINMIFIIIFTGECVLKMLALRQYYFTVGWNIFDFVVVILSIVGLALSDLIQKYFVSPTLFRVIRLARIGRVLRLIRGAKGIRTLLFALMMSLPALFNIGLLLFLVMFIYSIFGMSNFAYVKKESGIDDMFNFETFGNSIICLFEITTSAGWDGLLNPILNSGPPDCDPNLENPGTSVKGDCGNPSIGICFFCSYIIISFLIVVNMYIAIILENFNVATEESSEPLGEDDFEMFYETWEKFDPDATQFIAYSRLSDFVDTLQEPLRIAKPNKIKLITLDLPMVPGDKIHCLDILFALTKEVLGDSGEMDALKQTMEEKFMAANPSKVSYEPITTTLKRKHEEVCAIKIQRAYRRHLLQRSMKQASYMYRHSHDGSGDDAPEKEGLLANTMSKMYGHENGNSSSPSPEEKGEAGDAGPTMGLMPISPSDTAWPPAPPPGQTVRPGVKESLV

By ED50 is commonly meant the midpoint of the dose-response relation. A low value points to an effect at a small dose. As usually defined, the Ki is a measure of affinity in units of concentration, obtained from inhibition or displacement. A high value points to weaker binding. A word on the melting point: it is the temperature, or range, at which the solid turns liquid. For `Cl.Fc1cc(Cl)ccc1Oc1ccc(-c2c[nH]cn2)cc1` [4-[4-(4-Chloro-2-fluorophenoxy)phenyl]-1H-imidazole, hydrochloride salt], the melting point fell in the range of 216 to 220 °C. This molecule gave a 50% effective dose (ED50) in data set [1] of 10 mg/kg. Besides, in data set [2], the inhibition constant (Ki) turned out to be 120 nM.
Consider `Fc1ccc(Oc2ccc(-c3ccn(-c4ncccn4)n3)cc2)cc1` [2-{3-[4-(4-Fluorophenoxy)phenyl]-pyrazol-1-yl}-pyrimidine], for which the 50% effect level in data set [1] (ED50) was put at a dose of 4.7 mg/kg. In data set [2], this molecule displayed an inhibition constant (Ki) of 420 nM.
As for `NC(=O)n1ccc(-c2ccc(Oc3ccc(C(F)(F)F)cc3)cc2)n1` [3-[4-(4-Trifluoromethylphenoxy)phenyl]-1H-pyrazole-1-carboxamide], the melting point is 131 to 132 °C. In data set [1], this molecule yielded an ED50 of 3.9 mg/kg.
As for `NC(=O)Cn1nccc1-c1ccc(Oc2ccc(F)cc2)cc1` [2-{5-[4-(4-Fluorophenoxy)phenyl]-pyrazol-1-yl}-acetamide], it took a dose of 2.6 mg/kg to reach the 50% effect level in data set [1] (ED50). This molecule showed a Ki in data set [2] of 1560 nM.
`O=C(Cn1nccc1-c1ccc(Oc2ccc(F)cc2)cc1)N1CCOCC1` [1-Morpholin-4-yl-2-{5-[4-(4-fluorophenoxy)phenyl]-pyrazol-1-yl}-ethanone] gave a melting point of 122 to 124 °C. The molecule also displayed an ED50 in data set [1] of 4.4 mg/kg.
In turn, `Fc1ccc(Oc2ccc(-c3c[nH]cn3)cc2)c(F)c1` [4-[4-(2,4-Difluorophenoxy)phenyl]-1H-imidazole] came in with a melting point of 144 to 148 °C. In data set [2], this molecule came in with a Ki of 1030 nM.
For `Fc1ccc(Oc2ccc(-c3c[nH]cn3)cc2)c(F)c1` (as salt: hydrochloride) [4-[4-(2,4-Difluorophenoxy)phenyl]-1H-imidazole], the melting point is 192 to 195 °C.
`Cl.Fc1ccc(Oc2ccc(-c3c[nH]cn3)cc2F)cc1` [4-[4-(4-Fluorophenoxy)-3-fluorophenyl]-1H-imidazole, hydrochloride salt] registered a Ki in data set [2] of 250 nM. Also, in data set [2] (HEK-293 cells stably expressing the rBIIA isoform of Na+ channels), the “inhibition of voltage-gated sodium currents” value is given as “dose-dependent inhibition”. In addition, the Kd in data set [2] (HEK-293 cells stably expressing the rBIIA isoform of Na+ channels, read-out: apparent antagonist dissociation constant (Kd) for inactivated sodium channels) turned out to be 250 nM. For the same molecule, in data set [2] (rBIIA, blocking effect highly sensitive to the holding voltage), the “potency towards Na+ channels in their resting states” value is “weak potency”.
Molecule `CSc1cc(-c2ccc(Oc3ccccc3)cc2)nn1C(N)=O` [5-Methylthio-3-(4-phenoxyphenyl)-1H-pyrazole-1-carboxamide] showed a melting point of 142 to 144 °C. Further, the affinity in data set [3], expressed as Ki, was 80 nM.
As for `Fc1ccc(Oc2ccc(-c3ncc[nH]3)cc2)cc1` [2-[4-(4-Fluorophenoxy)phenyl]-1H-imidazole], the affinity in data set [2] corresponds to a Ki of 1100 nM.
`NC(=O)n1ccc(-c2ccc(Oc3ccc(Cl)cc3F)cc2)n1` [3-[4-(4-Chloro-2-fluorophenoxy)phenyl]-1H-pyrazole-1-carhoxamide]: the melting point was in the range of 150 to 151 °C. The molecule also showed an ED50 in data set [1] of 3.1 mg/kg. The molecule further returned a Ki in data set [3] of 3 nM.
As for `Cl.FC(F)(F)c1ccc(Oc2ccc(-c3c[nH]cn3)cc2)cc1` [4-(4-(4-Trifluoromethylphenoxy)phenyl]-1H-imidazole, hydrochloride salt], the melting point was 230 to 232 °C. Further, in data set [1], it took a dose of 7.7 mg/kg to reach the 50% effect level (ED50).
